From patent US8124389B2, “Crystal structure of aldehyde dehydrogenase and methods of use thereof” (The Board of Trustees of the Leland Stanford Junior …, priority 2008, dated 2012)
Where a chain is given by its changes, count along the chain named.

How the values were obtained:
Type in all cases: biochemical
wild-type ALDH2 [1] = biological target: T1, wild-type ALDH2 (Homo sapiens, UniProt P05091); assay: Dehydrogenase activity kinetic assay (25 mM BES, pH 7.5); details: for Hill Slope / Vmax^(app) of daidzin inhibition curve / Vmin^(app) of daidzin inhibition curve: 100 μM propionaldehyde, 0.5 mM NAD+; for Vm/Vo / Vmax^(app) / EC50: 25 mM BES, pH 7.5, 0.5 mM NAD+; for EC50: read-out: KAct^(app)
T1 construct: made in house; host or cells: E. coli
T1 sequence (P05091 18-517): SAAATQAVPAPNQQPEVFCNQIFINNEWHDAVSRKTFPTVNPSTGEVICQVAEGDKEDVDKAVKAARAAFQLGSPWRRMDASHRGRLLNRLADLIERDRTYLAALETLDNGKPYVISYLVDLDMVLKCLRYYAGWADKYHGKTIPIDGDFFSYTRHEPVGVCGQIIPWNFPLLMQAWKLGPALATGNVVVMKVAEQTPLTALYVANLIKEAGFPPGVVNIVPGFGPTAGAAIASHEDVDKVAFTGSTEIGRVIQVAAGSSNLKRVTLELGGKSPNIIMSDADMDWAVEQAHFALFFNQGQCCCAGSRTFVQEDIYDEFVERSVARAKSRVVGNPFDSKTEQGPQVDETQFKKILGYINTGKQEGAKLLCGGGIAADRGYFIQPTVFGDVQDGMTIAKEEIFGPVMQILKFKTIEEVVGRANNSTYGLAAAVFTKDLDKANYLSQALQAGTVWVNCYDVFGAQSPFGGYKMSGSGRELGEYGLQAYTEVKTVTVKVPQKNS
Experimental: (§1) (A) Wild-type ALDH2 at 0 μM or 10 μM Alda-1 and (B) ALDH2*2 at 0 μM or 50 μM Alda-1. NAD^+concentrations were 0.5 mM for wild-type ALDH2 and 10 mM for ALDH2*2. Lines show fits to 4-parameter logistic curve.
(§2) ALDH2 and ALDH2*2 were produced and purified using an E. coli expression system as previously described (Larson et al., 2005, J. Biol. Chem. 280, 30550-30556 and Larson et al., 2007, J. Biol. Chem., 282, 12940-12950). All enzyme assays were performed in 25 mM BES, pH 7.5 and included a final concentration of 2% (v/v) DMSO as a cosolvent in all cases whether or not Alda-1 was present. Enzyme concentrations in the dehydrogenase assays were between 0.03 and 0.06 μM for ALDH2 and between 0.3 and 0.5 μM for ALDH2*2. Esterase assays utilized 0.97 mM para-nitrophenylacetate (pNPA) as a standard substrate concentration and enzyme concentrations for 0.06 μM for ALDH2 and 0.7 μM for ALDH2*2. All kinetic data were analyzed with SigmaPlot (v10.0, StatSys). All activation data for the dehydrogenase and esterase reactions were fit to the expression v=Vo+{(Vmax[S])/(KAct+[S])}, where Vo is the initial velocity for the reaction in the absence of activator and KAct is the concentration of activator required for half-maximal activation. All single-vary experiments for Alda-1 activation utilized a minimum of 10 different concentrations across a range from 0-200 μM. […] All data represent the average of a minimum of three independent experiments with at least two different enzyme preparations.

ALDH2*2 [2] = biological target: T2, ALDH2*2 (Homo sapiens, UniProt P05091, E504K); assay: as above; details: for Hill Slope / Vmax^(app) of daidzin inhibition curve / Vmin^(app) of daidzin inhibition curve: 100 μM propionaldehyde, 10 mM NAD+
T2 construct: made in house; host or cells: E. coli
T2 sequence (P05091 18-517 E504K): T1 sequence (P05091 18-517) with E487K
Experimental: as §1, §2

[3] = biological target: T3, homotetrameric wild type ALDH2*1/*1 (Homo sapiens, UniProt P05091); assay: Enzyme activation of recombinant ALDH2 proteins by Alda-1 (FIG. 2); details: Alda-1 at 100 μM; 20 μg recombinant protein
T3 construct: made in house
T3 sequence (P05091 18-517): T1 sequence (P05091 18-517)
Experimental: (§3) FIG. 2 depicts enzyme activation of homotetrameric wild type ALDH2 (homo wild type), heterotetrameric ALDH2 (hetero wild type/mutant; comprising a mixture of wild-type and mutant monomers), and homotetrameric mutant ALDH2 by Alda-1(100 μM). Enzymatic activity of recombinant ALDH2 proteins (20 μg each) is presented in percentage using homotetrameric wild type enzyme as a 100% control (n=3, **p<0.01 vs. control).
(§4) Alda-1 is an ALDH2 agonist. […] Chen et al. (2008) Science 321:1493-1495; PMID: 18787169.

[4] = biological target: T4, heterotetrameric ALDH2 (wild type/mutant) (Homo sapiens, UniProt P05091, E504K); assay: as above; details: Alda-1 at 100 μM; 20 μg recombinant protein
T4 construct: made in house
T4 sequence (P05091 18-517): T1 sequence (P05091 18-517)
T4 sequence (P05091 18-517 E504K): T1 sequence (P05091 18-517) with E487K
Experimental: as §3, §4

[5] = biological target: T5, homotetrameric mutant ALDH2*2 (Homo sapiens, UniProt P05091, E504K); assay: as above; details: Alda-1 at 100 μM; 20 μg recombinant protein
T5 construct: made in house
T5 sequence (P05091 18-517 E504K): T1 sequence (P05091 18-517) with E487K
Experimental: as §3, §4

wild-type ALDH2 [6] = biological target: T1, wild-type ALDH2; assay: Esterase activity assay (p-nitrophenylacetate hydrolysis); details: for Vmax / EC50 / Vo: 0.97 mM p-Nitrophenylacetate; for EC50: read-out: KAct^(app); for Vo: velocity in absence of activator
Experimental: as §2
(§5) The ability of Alda-1 to stimulate the hydrolysis of p-nitrophenylacetate both in the presence and absence of coenzyme was examined.

ALDH2*2 [7] = biological target: T2, ALDH2*2; assay: as above
Experimental: as §2, §5

ALDH2*2 [8] = biological target: T2, ALDH2*2; assay: Dehydrogenase activity kinetic assay (25 mM BES, pH 7.5)
[9] = fixed 50 μM Alda-1, NAD+ as varied activator, 0.97 mM p-Nitrophenylacetate

For O=c1c(-c2ccc(O)cc2)coc2cc(O[C@@H]3O[C@H](CO)[C@@H](O)[C@H](O)[C@H]3O)ccc12 [Daidzin, daidzin, reference compound], the “Hill Slope” value (wild-type ALDH2 [1]; 10 μM Alda-1) was 1.0 +/− 0.1, the “Vmax^(app) of daidzin inhibition curve” value (wild-type ALDH2 [1]; 10 μM Alda-1) was 74.9 ± 12.1 min⁻¹ and the “Vmin^(app) of daidzin inhibition curve” value (wild-type ALDH2 [1]; 10 μM Alda-1) was 2.5 ± 5.2 min⁻¹. The “Hill Slope” value (wild-type ALDH2 [1]; no Alda-1) was 0.9 +/− 0.3, the “Vmax^(app) of daidzin inhibition curve” value (wild-type ALDH2 [1]; no Alda-1) was 61.5 ± 6.1 min⁻¹ and the “Vmin^(app) of daidzin inhibition curve” value (wild-type ALDH2 [1]; no Alda-1) was 5.1 ± 4.7 min⁻¹. The “Hill Slope” value (ALDH2*2 [2]; 50 μM Alda-1) was 1.1 +/− 0.1, the “Vmax^(app) of daidzin inhibition curve” value (ALDH2*2 [2]; 50 μM Alda-1) was 23.0 ± 1.7 min⁻¹ and the “Vmin^(app) of daidzin inhibition curve” value (ALDH2*2 [2]; 50 μM Alda-1) was 0.2 ± 0.2 min⁻¹. The “Hill Slope” value (ALDH2*2 [2]; no Alda-1) was 1.1 +/− 0.1, the “Vmax^(app) of daidzin inhibition curve” value (ALDH2*2 [2]; no Alda-1) was 11.6 ± 1.3 min⁻¹ and the “Vmin^(app) of daidzin inhibition curve” value (ALDH2*2 [2]; no Alda-1) was 0.2 ± 0.6 min⁻¹.

For O=C(NCc1ccc2c(c1)OCO2)c1c(Cl)cccc1Cl [Alda-1, N-(1,3-benzodioxol-5-ylmethyl)-2,6-dichlorobenzamide], the “increase of enzymatic activity” value [3] was 2.1 fold, the “increase of enzymatic activity” value [4] was 2.2 fold and the “increase of enzymatic activity” value [5] was 11 fold. The Vmax (wild-type ALDH2 [6]; 0.5 mM NAD+) was 248 ± 22 min⁻¹, the EC50 (wild-type ALDH2 [6]; 0.5 mM NAD+) was 2.6 µM and the Vo (wild-type ALDH2 [6]; 0.5 mM NAD+) was 96.3 ± 2.2 min⁻¹. For the same compound, the “Vmax (second line, paired with Ki^(app))” value (wild-type ALDH2 [6]; 0.5 mM NAD+, higher Alda-1 concentrations, antagonism with NAD+) was 242 ± 14 min⁻¹, the Ki (wild-type ALDH2 [6]; 0.5 mM NAD+, higher Alda-1 concentrations, antagonism with NAD+, read-out: Ki^(app)) was 328 µM and the “increase of ester hydrolysis” value (wild-type ALDH2 [6]; combined Alda-1 and NAD+) was 10 fold. It also gave a Vmax (wild-type ALDH2 [6]; no NAD+) of 181 ± 6.8 min⁻¹, an EC50 (wild-type ALDH2 [6]; no NAD+) of 3.4 µM and a Vo (wild-type ALDH2 [6]; no NAD+) of 24.9 ± 2.0 min⁻¹. For the same compound, the Vmax (ALDH2*2 [7]; 1.0 mM NAD+, 0.97 mM p-Nitrophenylacetate) was 14.7 ± 1.3 min⁻¹, the EC50 (ALDH2*2 [7]; 1.0 mM NAD+, 0.97 mM p-Nitrophenylacetate, read-out: KAct^(app)) was 11.2 µM and the Vo (ALDH2*2 [7]; 1.0 mM NAD+, 0.97 mM p-Nitrophenylacetate, velocity in absence of activator) was 1.36 ± 0.28 min⁻¹. For the same compound, the “increase of ester hydrolysis” value (ALDH2*2 [7]; combined Alda-1 and NAD+) was “over 100 fold”, the Vmax (ALDH2*2 [7]; [9]) was 49.5 ± 4.3 min⁻¹ and the Vo (ALDH2*2 [7]; [9]) was 0.64 ± 0.19 min⁻¹. It also gave a Vmax (ALDH2*2 [7]; no NAD+, 0.97 mM p-Nitrophenylacetate) of 2.3 ± 0.2 min⁻¹, an EC50 (ALDH2*2 [7]; no NAD+, 0.97 mM p-Nitrophenylacetate, read-out: KAct^(app)) of 16.1 µM and a Vo (ALDH2*2 [7]; no NAD+, 0.97 mM p-Nitrophenylacetate, velocity in absence of activator) of 0.40 ± 0.03 min⁻¹. The EC50 (ALDH2*2 [7]; with Alda-1, read-out: half-maximal activating concentration of NAD+ for the esterase reaction in presence of Alda-1 (lowered from 7.5 mM)) was 2800 µM, the EC50 (ALDH2*2 [8]; covariation NAD+ (0.5-10 mM) and Alda-1 (0 to 30 μM), non-essential activator fit, read-out: Kact) was 16 ± 3 µM and the “decrease of apparent Km for NAD+” value (ALDH2*2 [8]; covariation NAD+ and Alda-1) was 6.7 fold. The “increase of Vmax” value (ALDH2*2 [8]; covariation NAD+ and Alda-1) was 2 fold, the “β-factor (modifier on Vmax)” value (ALDH2*2 [8]; covariation NAD+ and Alda-1, non-essential activator fit) was 2.0±0.2 and the “effect on ALDH2 activity with phenylacetaldehyde or DACA” value (wild-type ALDH2 [1]) was “little effect”. For the same compound, the “effect on daidzin inhibition” value (wild-type ALDH2 [1]; 10 μM Alda-1) was “antagonized daidzin inhibition”, the “effect on dehydrogenase activity with aromatic aldehydes (benzaldehyde, phenylacetaldehyde, DACA)” value (wild-type ALDH2 [1]; 20 μM Alda-1, saturating concentrations of substrate, pH 7.5) was “minimal effects” and the Vm/Vo (wild-type ALDH2 [1]; 100 μM Acetaldehyde) was 1.8 +/− 0.1. The “Vmax^(app)” value (wild-type ALDH2 [1]; 100 μM Acetaldehyde) was 107 ± 12 min⁻¹, the EC50 (wild-type ALDH2 [1]; 100 μM Acetaldehyde) was 0.98 µM and the Vm/Vo (wild-type ALDH2 [1]; 100 μM Butyraldehyde) was 1.3 +/− 0.1. The “Vmax^(app)” value (wild-type ALDH2 [1]; 100 μM Butyraldehyde) was 86.6 ± 3.1 min⁻¹, the EC50 (wild-type ALDH2 [1]; 100 μM Butyraldehyde) was 1.8 µM and the Vm/Vo (wild-type ALDH2 [1]; 100 μM Propionaldehyde) was 1.7 +/− 0.1. The “Vmax^(app)” value (wild-type ALDH2 [1]; 100 μM Propionaldehyde) was 78.5 ± 9.6 min⁻¹, the EC50 (wild-type ALDH2 [1]; 100 μM Propionaldehyde) was 5.1 µM and the “effect on ALDH2 activity with phenylacetaldehyde or DACA at high concentrations” value (wild-type ALDH2 [1]; Alda-1 >100 μM) was “weakly inhibitory”. For the same compound, the “effect on activity with benzaldehyde” value (wild-type ALDH2 [1]; up to maximum concentration used, 200 μM Alda-1) was “little effect” and the “effect on daidzin inhibition” value (ALDH2*2 [2]; 50 μM Alda-1) was “antagonized daidzin inhibition”.
